For 17 compounds, remaining activity results are on record in PMC8286840, “Identifying SARS-CoV-2 antiviral compounds by screening for small molecule inhibitors of Nsp3 papain-like protease” (Biochemical Journal, 2021).

SMILES strings stand for the structures. Counter-ions that a name gives are not always drawn. Like-named read-outs stand apart in the source and are kept apart here.

Assay [1] has as its target T1, SARS-CoV-2 PLpro (nsp3 1564–1878) (Severe acute respiratory syndrome coronavirus 2, UniProt P0DTD1). In words: biochemical. On the set-up: FRET-quenched peptide (Pro3) cleavage by PLpro, 10 min pre-incubation, slope over 20 min, normalised to no-compound control. Conditions: low concentration screen, read-out: % of control remaining.
For assay [2], the target named is T1, SARS-CoV-2 PLpro (nsp3 1564–1878). Put plainly: biochemical. Further details: FRET-quenched peptide (Pro3) cleavage by PLpro, 10 min pre-incubation, slope over 20 min, normalised to no-compound control. Conditions: high concentration screen, read-out: % of control remaining.

Turning to `CO[C@@H]1[C@H](OC(=O)/C=C/C=C/C=C/C=C/C(=O)O)CC[C@]2(CO2)[C@H]1[C@@]1(C)O[C@@H]1CC=C(C)C` [Fumagillin], the values for the remaining activity at 1.25 µM in assay [1] (Well no.=1621) and in assay [1] (Well no.=3283) were 103% and 102%, respectively. In addition, the remaining activity at 3.75 µM in assay [2] (Well no.=1621) was found to be 100%; in assay [2] (Well no.=3283), 101%.

For `O=C(O)/C=C/C(=O)O` [Fumaric acid], in assay [1] (Well no.=6539), the remaining activity at 1.25 µM stood at 101%. In addition, the remaining activity at 3.75 µM in assay [2] (Well no.=6539) was 82.4%.

Regarding `CCCC[C@@H](C)[C@@H](OC(=O)C[C@@H](CC(=O)O)C(=O)O)[C@H](C[C@@H](C)CCCCCC[C@@H](O)C[C@H](O)[C@H](C)N)OC(=O)C[C@@H](CC(=O)O)C(=O)O` [Fumonisin B2], the remaining activity at 1.25 µM in assay [1] (Well no.=3285) came out at 95.4%. In assay [2] (Well no.=3285), the remaining activity at 3.75 µM is 95.7%.

Regarding `Cc1nc2c([nH]1)c(=O)n(C)c(=O)n2Cc1ccco1` [Furafylline], the remaining activity at 1.25 µM in assay [1] (Well no.=665) is 95.4%; in assay [1] (Well no.=1544) it was 97.6%. For the same compound, the remaining activity at 3.75 µM in assay [2] (Well no.=665) came out at 92.2%; in assay [2] (Well no.=1544), 100%.

On to `O=C(O)c1cc2cc(Cc3cccnc3)ccc2o1` [Furegrelate sodium], for which, in assay [1] (Well no.=563), the remaining activity at 1.25 µM amounted to 97.2%. For the same compound, the remaining activity at 3.75 µM in assay [2] (Well no.=563) worked out at 97.3%.

For `NS(=O)(=O)c1cc(C(=O)O)c(NCc2ccco2)cc1Cl` [Furosemide], the remaining activity at 1.25 µM in assay [1] (Well no.=659) was 92.2%; in assay [1] (Well no.=2166), 101%; in assay [1] (Well no.=7462), 102%. Moreover, the remaining activity at 3.75 µM in assay [2] (Well no.=659) was 94.4%; in assay [2] (Well no.=2166), 99.5%; in assay [2] (Well no.=7462) it was 102%.

Regarding `CCCCc1ccc(C(=O)O)nc1` [Fusaric acid], the remaining activity at 1.25 µM in assay [1] (Well no.=613) was determined as 98.5%. In addition, the remaining activity at 3.75 µM in assay [2] (Well no.=613) turned out to be 99.1%.

For the compound `CC(=O)O[C@H]1C[C@@]2(C)[C@@H](C[C@@H](O)[C@H]3[C@@]4(C)CC[C@@H](O)[C@@H](C)[C@@H]4CC[C@@]32C)/C1=C(\CCC=C(C)C)C(=O)O` [Fusidic acid sodium], the remaining activity at 1.25 µM in assay [1] (Well no.=657) worked out at 104%. For the same compound, in assay [2] (Well no.=657), the remaining activity at 3.75 µM was 101%.

Take `c1cc(-c2sc(-c3ccncc3)c(-c3ccncc3)c2-c2ccncc2)ccn1` [GANT58]: in assay [1] (Well no.=5874), the remaining activity at 1.25 µM turned out to be 94.6%. Moreover, the remaining activity at 3.75 µM in assay [2] (Well no.=5874) was determined as 86.5%.

For the compound `Fc1ccc(C(OCCN2CCN(CCCc3ccccc3)CC2)c2ccc(F)cc2)cc1` [GBR-12909 dihydrochloride], in assay [1] (Well no.=590), the remaining activity at 1.25 µM came out at 98.5%. In addition, in assay [2] (Well no.=590), the remaining activity at 3.75 µM was 98.5%.

Consider `c1ccc(CCCN2CCN(CCOC(c3ccccc3)c3ccccc3)CC2)cc1` [GBR-12935 dihydrochloride], for which, in assay [1] (Well no.=765), the remaining activity at 1.25 µM worked out at 91%. Besides, the remaining activity at 3.75 µM in assay [2] (Well no.=765) is 87.4%.

On to `CC(C)NC[C@@H](C(=O)N1CCN(c2ncnc3c2[C@H](C)C[C@H]3O)CC1)c1ccc(Cl)cc1` [GDC-0068], for which, in assay [1] (Well no.=5131), the remaining activity at 1.25 µM came to 104%. Moreover, the remaining activity at 3.75 µM in assay [2] (Well no.=5131) is 106%.

Regarding `CN[C@@H](C)C(=O)N[C@H](C(=O)N1CCC[C@H]1C(=O)Nc1snnc1-c1ccccc1)C1CCCCC1` [GDC-0152], the remaining activity at 1.25 µM in assay [1] (Well no.=6692) amounted to 103%. Also, the remaining activity at 3.75 µM in assay [2] (Well no.=6692) came to 95.6%.

On to `CCNC(=O)Nc1ccc(-c2nc3c(c(N4CCOC[C@@H]4C)n2)CCN(C2COC2)C3)cc1` [GDC-0349], for which the remaining activity at 1.25 µM in assay [1] (Well no.=5220) came to 97.8%. Also, the remaining activity at 3.75 µM in assay [2] (Well no.=5220) was 95.1%.

With `OCCn1cc(-c2ccc3c(c2)CC/C3=N\O)c(-c2ccncc2)n1` [GDC-0879], the remaining activity at 1.25 µM in assay [1] (Well no.=5043) turned out to be 104%. Also, the remaining activity at 3.75 µM in assay [2] (Well no.=5043) was found to be 104%.

As to `CS(=O)(=O)N1CCN(Cc2cc3nc(-c4cccc5[nH]ncc45)nc(N4CCOCC4)c3s2)CC1` [GDC-0941], the remaining activity at 1.25 µM in assay [1] (Well no.=2801) was 103%. For the same compound, the remaining activity at 3.75 µM in assay [2] (Well no.=2801) was found to be 101%.

`Cc1cccc(NC(=O)Nc2ccc(-c3csc4ncnc(N)c34)cc2)c1` [GDP366]: the remaining activity at 1.25 µM in assay [1] (Well no.=6976) was 101%. In addition, the remaining activity at 3.75 µM in assay [2] (Well no.=6976) is 99.1%.
